The target in data set [1] is T1, p38 MAPKα isoform (MAPK14) (Homo sapiens, UniProt Q16539).
T1 construct: purchased Life Technologies
The data set is described as follows: p38 MAPKα enzyme inhibition (Z-LYTE FRET). Format: biochemical. The note with it: Table 2A; read-out: IC50 Values for Enzyme Inhibition p38 MAPKα. The method, boiled down: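 Activity was measured indirectly as phosphorylation of a MAPKAP-K2-derived FRET peptide. Enzyme (added at 40 ng/mL) was preincubated 2 h at RT with compound (added solutions 40–0.0012 μg/mL).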

Another data set deals with T2, c-Src (Homo sapiens, UniProt P12931).
T2 construct: purchased Life Technologies
The data set is described as follows: c-Src enzyme inhibition (Z-LYTE FRET). In kind it is biochemical. The note with it: Table 2A. Summed up: (§1)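 Z-LYTE readout: coumarin-to-fluorescein ratio after 1 h protease cleavage of unphosphorylated peptide. Kinase reactions ran 1 h at RT with ATP stock at 800 μM (c-Src) or 60 μM (Hck, Syk), following 2 h compound preincubation over 0.0012–40 μg/mL; enzyme stocks 1000/1400/2000 ng/mL.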

Another data set concerns the target T3, Syk (Homo sapiens, UniProt P43405).
T3 construct: purchased Life Technologies
The data set is described as follows: Syk enzyme inhibition (Z-LYTE FRET). Format: biochemical. Particulars: Table 2A. The method, boiled down:
as §1

Another data set concerns the target T4, GSK 3α enzyme isoform (Homo sapiens, UniProt P49840).
T4 construct: purchased Life Technologies
The data set is described as follows: GSK 3α enzyme inhibition (Z-LYTE FRET). In kind it is biochemical. Particulars: Table 2A; read-out: IC50 Values for Enzyme Inhibition GSK3α. Summed up: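 Z-LYTE FRET kinase assay: GSK3α protein (500 ng/mL stock) preincubated with compound (0.0012–40 μg/mL stocks) for 2 h at RT. FRET peptide (8 μM stock) and ATP (40 μM stock) added for 1 h at RT, then protease development for 1 h. Phosphorylation taken from the coumarin/fluorescein emission ratio.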

Data set [2] relates to IL-8 release in d-U937 cells. The data set is described as follows: LPS-induced IL-8 release in d-U937 cells. In kind it is cell-based. The note with it: Homo sapiens, dU937, LPS 0.1 μg/mL 4 h. Summed up: (§2)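 PMA-differentiated U937 (100-200 ng/mL, 48-72 h); cpd pre-inc 2 h; LPS 0.1 μg/mL (E. coli O111:B4), 4 h. Supernatant TNFα/IL-8 by sandwich ELISA. % inhibition vs vehicle; REC50 from curve.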

Data set [3] deals with TNFα release in d-U937 cells. The data set is described as follows: LPS-induced TNFα release in d-U937 cells. Also: relative to 10 µg/mL BIRB-796. In kind it is cell-based. Particulars: Homo sapiens, dU937; read-out: LPS Induced Release TNFα REC50 (dU937). The method, boiled down:
as §2

The test system of a further data set is d-U937 cells. The data set is described as follows: Cell viability: MTT assay in differentiated U937 cells. The note with it: 10 μg/mL. Format: cell-based, human. The method, boiled down:
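Viability loss, calculated against 0.5% DMSO vehicle (gains reported negative), was measured by MTT reduction (1 h) and A550 after DMSO solubilisation. Compound exposure of d-U937 cells was 10 μg/mL final, for 24 h in 10% FCS or 4 h in 5% FCS RPMI1640.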

Molecules are shown by their SMILES.

As a reminder, the IC50 is the concentration at which inhibition is half-maximal.

T2 sequence (P12931 whole entry): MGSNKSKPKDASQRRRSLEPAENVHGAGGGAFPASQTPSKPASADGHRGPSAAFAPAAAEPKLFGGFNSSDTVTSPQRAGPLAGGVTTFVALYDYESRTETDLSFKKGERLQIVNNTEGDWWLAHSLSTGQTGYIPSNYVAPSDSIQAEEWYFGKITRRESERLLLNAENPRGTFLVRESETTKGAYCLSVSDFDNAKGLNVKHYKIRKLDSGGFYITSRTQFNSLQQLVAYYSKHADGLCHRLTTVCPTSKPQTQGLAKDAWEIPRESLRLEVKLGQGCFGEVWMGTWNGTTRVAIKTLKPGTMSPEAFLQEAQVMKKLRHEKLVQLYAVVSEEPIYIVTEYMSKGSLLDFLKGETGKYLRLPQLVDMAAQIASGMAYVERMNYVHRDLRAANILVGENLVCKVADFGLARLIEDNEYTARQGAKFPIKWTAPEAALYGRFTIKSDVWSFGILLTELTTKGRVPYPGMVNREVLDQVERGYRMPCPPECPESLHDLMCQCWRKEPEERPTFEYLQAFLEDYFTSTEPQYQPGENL
T1 sequence (Q16539 whole entry, canonical isoform): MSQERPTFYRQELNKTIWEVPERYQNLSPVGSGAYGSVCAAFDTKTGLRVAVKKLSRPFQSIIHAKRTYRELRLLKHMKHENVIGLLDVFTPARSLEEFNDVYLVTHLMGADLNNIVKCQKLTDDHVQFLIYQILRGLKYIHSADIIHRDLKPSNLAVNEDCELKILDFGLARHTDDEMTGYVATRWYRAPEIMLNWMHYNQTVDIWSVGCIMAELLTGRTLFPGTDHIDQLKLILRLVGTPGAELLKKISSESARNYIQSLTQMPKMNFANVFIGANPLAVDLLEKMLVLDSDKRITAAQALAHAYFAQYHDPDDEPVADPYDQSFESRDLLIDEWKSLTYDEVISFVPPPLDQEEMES
T4 sequence (P49840 whole entry, canonical isoform): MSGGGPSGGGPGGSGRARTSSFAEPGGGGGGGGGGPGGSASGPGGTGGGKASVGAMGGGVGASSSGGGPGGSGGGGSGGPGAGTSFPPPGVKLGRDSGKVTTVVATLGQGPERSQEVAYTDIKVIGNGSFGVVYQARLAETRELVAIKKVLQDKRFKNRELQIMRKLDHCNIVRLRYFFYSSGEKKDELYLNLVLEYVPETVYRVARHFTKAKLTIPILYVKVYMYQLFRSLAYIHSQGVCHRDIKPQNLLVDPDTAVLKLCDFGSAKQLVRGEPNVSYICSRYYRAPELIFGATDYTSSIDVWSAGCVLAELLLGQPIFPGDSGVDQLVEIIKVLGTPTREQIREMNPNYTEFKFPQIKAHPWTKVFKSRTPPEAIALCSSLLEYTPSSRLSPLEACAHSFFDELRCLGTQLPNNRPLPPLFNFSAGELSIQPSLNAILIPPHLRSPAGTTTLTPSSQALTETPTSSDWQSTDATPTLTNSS

`Cc1ccc(-n2nc(C(C)(C)C)cc2NC(=O)Nc2ccc(OCc3ccnc(Nc4cncc(CO)n4)c3)c3ccccc23)cc1` [Example 21]: the concentration for half-maximal inhibition (IC50) in data set [1] is 5 nM; against c-Src, 33 nM; on Syk, over 15900 nM; on GSK 3α enzyme isoform it was 1580 nM; in data set [2], 7.9 nM. Besides, in data set [3], the EC50 was found to be 0.6 nM. For the same compound, the “MTT Assay Cell viability at time point indicated in d-U937 Cells, 4 h” value (shortened to “MTT Assay Cell viability … in d-U937 Cells, 4 h”) in the data set on d-U937 cells is “− (−ve and +ve indicate the value is below and above, respectively, the no significant effect threshold defined as 30% inhibition at 10 μg/mL at the time point indicated)”. For the same compound, the “MTT Assay Cell viability at time point indicated in d-U937 Cells, 24 h” value (“MTT Assay Cell viability … 24 h” below) in the data set on d-U937 cells was “− (−ve and +ve indicate the value is below and above, respectively, the no significant effect threshold defined as 30% inhibition at 10 μg/mL at the time point indicated)”.
Consider `COc1ccc(-n2nc(C(C)(C)C)cc2NC(=O)Nc2ccc(OCc3ccnc(Nc4cncc(C5CC5)n4)c3)c3ccccc23)cc1` [Example 22], for which the concentration for half-maximal inhibition (IC50) in data set [1] was 22 nM; against c-Src, 27 nM; at Syk, 6700 nM; at GSK 3α enzyme isoform it was 1710 nM; in data set [2] it was 1.6 nM. Moreover, in data set [3], the EC50 stood at 2.1 nM. Besides, the “MTT Assay Cell viability … in d-U937 Cells, 4 h” value with d-U937 cells was “− (−ve and +ve indicate the value is below and above, respectively, the no significant effect threshold defined as 30% inhibition at 10 μg/mL at the time point indicated)”. The “MTT Assay Cell viability … 24 h” value in the data set on d-U937 cells was “− (−ve and +ve indicate the value is below and above, respectively, the no significant effect threshold defined as 30% inhibition at 10 μg/mL at the time point indicated)”.
As to `COc1ccc(-n2nc(C(C)(C)C)cc2NC(=O)Nc2ccc(OCc3ccnc(Nc4cnc(CO)cn4)c3)c3ccccc23)cc1` [Example 23], the IC50 in data set [1] came out at 4 nM; against c-Src it was 33 nM; on Syk it was 2150 nM; at GSK 3α enzyme isoform, 626 nM; in data set [2] it was 6.2 nM. The EC50 in data set [3] was 3.1 nM. In the data set with d-U937 cells, the “MTT Assay Cell viability … in d-U937 Cells, 4 h” value is “− (−ve and +ve indicate the value is below and above, respectively, the no significant effect threshold defined as 30% inhibition at 10 μg/mL at the time point indicated)”. In addition, the “MTT Assay Cell viability … 24 h” value with d-U937 cells was “+ (−ve and +ve indicate the value is below and above, respectively, the no significant effect threshold defined as 30% inhibition at 10 μg/mL at the time point indicated)”.
In the case of `Cc1ccc(-n2nc(C(C)(C)C)cc2NC(=O)Nc2ccc(OCc3ccnc(Nc4cncc(C5CC5)n4)c3)c3ccccc23)s1` [Example 24], the half-inhibitory concentration (IC50) came out at 38 nM in data set [1]; 42 nM against c-Src; 8830 nM against Syk; 1130 nM at GSK 3α enzyme isoform; 4.5 nM in data set [2]. Besides, the EC50 in data set [3] turned out to be 3.1 nM. Further, the “MTT Assay Cell viability … in d-U937 Cells, 4 h” value with d-U937 cells is “− (−ve and +ve indicate the value is below and above, respectively, the no significant effect threshold defined as 30% inhibition at 10 μg/mL at the time point indicated)”. Also, the “MTT Assay Cell viability … 24 h” value in the data set on d-U937 cells was “− (−ve and +ve indicate the value is below and above, respectively, the no significant effect threshold defined as 30% inhibition at 10 μg/mL at the time point indicated)”.
With `CC(C)(C)c1cc(NC(=O)Nc2ccc(OCc3ccnc(Nc4cncc(C5CC5)n4)c3)c3ccccc23)n(-c2ccc(CO)cc2)n1` [Example 25], the IC50 was 7 nM in data set [1]; 10 nM against c-Src; 2220 nM against Syk; 523 nM on GSK 3α enzyme isoform; 5.8 nM in data set [2]. The EC50 in data set [3] amounted to 1.4 nM. In addition, the “MTT Assay Cell viability … in d-U937 Cells, 4 h” value in the data set with d-U937 cells was “− (−ve and +ve indicate the value is below and above, respectively, the no significant effect threshold defined as 30% inhibition at 10 μg/mL at the time point indicated)”. The “MTT Assay Cell viability … 24 h” value in the data set on d-U937 cells is “+ (−ve and +ve indicate the value is below and above, respectively, the no significant effect threshold defined as 30% inhibition at 10 μg/mL at the time point indicated)”.
Consider `Cc1ccc(-n2nc(C(C)(C)C)cc2NC(=O)Nc2ccc(OCc3ccnc(Nc4cnc(CO)cn4)c3)c3ccccc23)s1` [Example 26], for which the IC50 is 7 nM in data set [1]; 56 nM against c-Src; 1580 nM against Syk; 469 nM on GSK 3α enzyme isoform; 14.6 nM in data set [2]. In addition, in data set [3], the EC50 was found to be 4.5 nM. The “MTT Assay Cell viability … in d-U937 Cells, 4 h” value with d-U937 cells was “− (−ve and +ve indicate the value is below and above, respectively, the no significant effect threshold defined as 30% inhibition at 10 μg/mL at the time point indicated)”. Besides, the “MTT Assay Cell viability … 24 h” value in the data set with d-U937 cells was “+ (−ve and +ve indicate the value is below and above, respectively, the no significant effect threshold defined as 30% inhibition at 10 μg/mL at the time point indicated)”.
With `Cc1cc(-n2nc(C(C)(C)C)cc2NC(=O)Nc2ccc(OCc3ccnc(Nc4cncc(C5CC5)n4)c3)c3ccccc23)cs1` [Example 27], the half-inhibitory concentration (IC50) in data set [1] came out at 17 nM; against c-Src, 42 nM; against Syk, 9160 nM; on GSK 3α enzyme isoform it was 1030 nM; in data set [2], 4 nM. In data set [3], the EC50 was 4.3 nM. Further, the “MTT Assay Cell viability … in d-U937 Cells, 4 h” value in the data set with d-U937 cells is “− (−ve and +ve indicate the value is below and above, respectively, the no significant effect threshold defined as 30% inhibition at 10 μg/mL at the time point indicated)”. The “MTT Assay Cell viability … 24 h” value in the data set with d-U937 cells was “+ (−ve and +ve indicate the value is below and above, respectively, the no significant effect threshold defined as 30% inhibition at 10 μg/mL at the time point indicated)”.
Consider `CNC(=O)Cc1cncc(Nc2cc(COc3ccc(NC(=O)Nc4cc(C(C)(C)C)nn4-c4ccc(C)cc4)c4ccccc34)ccn2)n1` [Example 28], for which the IC50 in data set [1] is 5 nM; at c-Src, 32 nM; against Syk, over 14900 nM; at GSK 3α enzyme isoform it was 5170 nM; in data set [2], 29.9 nM. Further, in data set [3], the EC50 was 2.7 nM. Further, the “MTT Assay Cell viability … in d-U937 Cells, 4 h” value in the data set on d-U937 cells is “− (−ve and +ve indicate the value is below and above, respectively, the no significant effect threshold defined as 30% inhibition at 10 μg/mL at the time point indicated)”. Moreover, in the data set with d-U937 cells, the “MTT Assay Cell viability … 24 h” value was “+ (−ve and +ve indicate the value is below and above, respectively, the no significant effect threshold defined as 30% inhibition at 10 μg/mL at the time point indicated)”.
Consider `Cc1ccc(-n2nc(C(C)(C)C)cc2NC(=O)Nc2ccc(OCc3ccnc(Nc4cnc(CC(=O)N(C)C)cn4)c3)c3ccccc23)cc1` [Example 29], for which the concentration for half-maximal inhibition (IC50) was 5 nM in data set [1]; 28 nM on c-Src; over 14600 nM at Syk; 207 nM on GSK 3α enzyme isoform; 8.5 nM in data set [2]. For the same compound, the EC50 in data set [3] worked out at 4.2 nM. Also, the “MTT Assay Cell viability … in d-U937 Cells, 4 h” value in the data set with d-U937 cells was “− (−ve and +ve indicate the value is below and above, respectively, the no significant effect threshold defined as 30% inhibition at 10 μg/mL at the time point indicated)”. Further, the “MTT Assay Cell viability … 24 h” value with d-U937 cells was “+ (−ve and +ve indicate the value is below and above, respectively, the no significant effect threshold defined as 30% inhibition at 10 μg/mL at the time point indicated)”.
For the compound `Cc1ccc(-n2nc(C(C)(C)C)cc2NC(=O)Nc2ccc(OCc3ccnc(Nc4cnc(CC(N)=O)cn4)c3)c3ccccc23)cc1` [Example 30], the IC50 in data set [1] was 2 nM; at c-Src it was 19 nM; against Syk, over 15200 nM; on GSK 3α enzyme isoform, 1490 nM; in data set [2], 6.9 nM. The EC50 in data set [3] is 5.2 nM. Also, in the data set on d-U937 cells, the “MTT Assay Cell viability … in d-U937 Cells, 4 h” value is “− (−ve and +ve indicate the value is below and above, respectively, the no significant effect threshold defined as 30% inhibition at 10 μg/mL at the time point indicated)”. The “MTT Assay Cell viability … 24 h” value in the data set on d-U937 cells was “− (−ve and +ve indicate the value is below and above, respectively, the no significant effect threshold defined as 30% inhibition at 10 μg/mL at the time point indicated)”.

The values above are taken from patent US11142515B2, “Pyrazolyl-ureas as kinase inhibitors” (RESPIVERT LIMITED, priority 2014, dated 2021).
